These antisense oligonucleotides have a phosphorothioate backbone; sugars and methylation of C are not fully specified.
Conditions: ASO
Further: test concentration or dose not given here.

Sequence | remaining target (mRNA or protein) (fraction of control)
AAAGAAGGGATAAGCACT | 0.93
AAAGCCATAGCCAGTTGC | ≥ 1
AAAGCCGTGGTGAACTGACT | 0.84
AAATAGGTAGCCAGGTGG | 0.99
AAATGGCCGTTTTGCTCC | ≥ 1
AACGTGGTCACTTTATAG | 0.73
AACTGAAATAACAACTTA | 0.94
AAGACAATGTGGAATCGG | ≥ 1
AAGGTGCTCTTCCCGCTC | 0.29
AAGGTTAAGATGCAGCAT | 0.55
AAGTCCAAGACAGAATCTGT | 0.46
AATCTTTAATTTCAGCCC | ≥ 1
AATTCTGCCAGGTTGCTG | ≥ 1
ACAGATCCAGTGGCTTGT | ≥ 1
ACAGTGTTTTCCGCGGT | 0.53
ACATTGAGGGAGTCGTTG | ≥ 1
ACCACAGAACTGAAGGTT | ≥ 1
ACCAGCCCCGAGCGTTTG | 0.74
ACGTAGCCCTCCTCGGTG | ≥ 1
ACTGCCTTCTCTGCCCACTT | 0.41
AGAAAAGGAAATCCCAAA | ≥ 1
AGAGGCAGAGAAGAGAGC | 0.93
AGCCAAATGGGAACTCACAG | 0.74
AGCGCCACACGCGACAGTAA | 0.56

Sequence | remaining target (mRNA or protein) (fraction of control)
AGCTCCCTTCTTACTCCC | 0.69
AGCTCGCGCGAACCCCTA | ≥ 1
AGGAGGCAGTACTGGAGTCT | 0.7
AGGCTGCTGGAAAGAGTCAG | 0.53
AGGGAATAAATACAAAAG | ≥ 1
AGGGAGGCTGCCTTTTCC | 0.63
AGGTAGTACACGGCTGAA | 0.28
AGGTGACACGCCCGGAGA | ≥ 1
AGTAGGTTTTGGTGGTTT | ≥ 1
AGTGCATAAGAGGCCACAGC | 0.56
ATCAGACTGGAGAGGAGC | 0.73
ATCCCCTGATTTCTTCAC | 0.53
ATCCGCAGGTTGGTTTTC | ≥ 1
ATCCTTTGTATTTCTTTC | 0.85
ATCGTGCGCCCTTCTTGC | ≥ 1
ATCTTCTTCTCTTTCCTT | ≥ 1
ATTCAGCATTTTGTAAGG | 0.99
ATTCTCCCAAAGCGTCCC | 0.81
ATTGGTCTCTCGTCTTTC | ≥ 1
ATTTCACTGTAAACGGCT | 0.81
ATTTCCTGGGATGTGCGG | 0.48
ATTTCTCTCGTCCGCAAA | 0.34
CAAAACCTAAATCCCTGG | ≥ 1
CAAAGCGCTTAACTACAT | ≥ 1

Sequence | remaining target (mRNA or protein) (fraction of control)
CACCCTGGCATCCCAAAT | 0.13
CACCGATGCAGAGGTCGC | 0.87
CACCTGCAGCCGCCCGTCCA | 0.55
CACTCTCGGGCAGCCAGC | 0.91
CAGCACCCCAACCCTTAACA | 0.47
CAGCGAGTACGTGACGGT | 0.93
CAGGTAGATGAGGGCGAT | 0.74
CATAAGAGGCCACAGCAGGC | 0.41
CCAAAGAGCTGCTGGGAA | ≥ 1
CCAACAAAACAGTCCAAA | 0.94
CCACCACTACAGAGCAGG | ≥ 1
CCACCGCCGCCGCCGCTG | 0.62
CCACTAGAGTGCGCCAGA | ≥ 1
CCACTCCCACCTCCCACC | ≥ 1
CCAGGCTAAACCAGGCTG | 0.43
CCATCTATGAGCACACTTCG | 0.33
CCATGGTGCGGTGGCCTC | 0.94
CCCAGGCGGAGGTCGGCG | ≥ 1
CCCCACGCTGCCCTCGGA | 0.8
CCCCTCCACAAAAGTGCC | 0.78
CCCGCACGTCCTTGAAGA | 0.27
CCCGGGCAGCTGAGAGCCCT | 0.72
CCCTAGTCCACAGGTTCC | ≥ 1
CCGCCAGAAAGACCCCAC | ≥ 1

Sequence | remaining target (mRNA or protein) (fraction of control)
CCGCTCTTGGGTCTGGCA | 0.29
CCGTGGATGATCCGCATC | ≥ 1
CCTAGCAGTCTCTTCACTGC | 0.74
CCTCCACAGCCACTGCAT | 0.97
CCTCCGCCCTCTCTTGCC | 0.8
CCTGTTTACTGCTCTCCC | 0.8
CCTTCAAAAGTTGTGCGG | ≥ 1
CCTTCAGCAAAACAAAAC | 0.76
CCTTGAAGACCTTGCGGA | 0.14
CGCACAGCCCTTCACGGCAA | 0.32
CGCATGGACACGAAGATG | ≥ 1
CGCCCGCCGGTGCCGCCT | 0.47
CGCCCGGCGGCTCTTTCT | ≥ 1
CGCTCCGAAAAGAGACAG | 0.87
CGGCTGAATCGAGCAGGT | 0.93
CGTCGGGCTCCTTGCTGA | ≥ 1
CGTGTTGATAGTTGCAGTTC | ≥ 1
CTACAGGTTGGCCACTCTGG | 0.33
CTATGGAAATGCAGCTTAAG | 0.87
CTCATAGCAGGCCCGGAT | 0.44
CTCATCCGGATAGTACACAT | 0.64
CTCCAGGATGTCGGTTTT | 0.77
CTCCGGCGCGCACGGGAACC | 0.55
CTCGATCGCTCCTCGTGC | ≥ 1

Sequence | remaining target (mRNA or protein) (fraction of control)
CTCGTAACAAACTGGTCGAA | 0.83
CTGAAAGTGACAGTGTTT | 0.79
CTGCCTCTCTCTCCTCCG | ≥ 1
CTGCTGTATCATTTTCTT | ≥ 1
CTGCTTCTTCTGCTCCAA | 0.57
CTTAAGACATGACTGTTAAG | 0.89
CTTCTTGCTGCCCTCGGG | ≥ 1
CTTTACTTCGCCGTCCAC | 0.59
CTTTCAAAGGAGGGAAAC | ≥ 1
CTTTGTTTCGGTTGCTGC | 0.64
GACGTGCCTTTCTGCTAC | 0.72
GACTTCCTTGCCTGAAAC | ≥ 1
GAGAGATGCCCACCCACC | ≥ 1
GAGGCGCTGCGGAACTTGGC | 0.5
GAGTTGGTAGCCTCCGTT | ≥ 1
GATCTTGCAGACGGTAGCTG | 0.3
GATGAACCTCTTGGCTGC | ≥ 1
GATGACGGATGTGCTTTT | 0.74
GATGCGCTCCAGGTGGGA | 0.58
GATGGGGGTGGTGGAGTGCA | 0.75
GCACAGCCTGTCTTCAAA | ≥ 1
GCAGAGCCGGCTGAAGTG | 0.96
GCATCTGCTTGATGAAGG | ≥ 1
GCCCGCACGGAGCCCTGC | 0.81

Sequence | remaining target (mRNA or protein) (fraction of control)
GCCCTTTGCTTTCCAGAG | ≥ 1
GCGCGTCCGGTGCTCCCA | 0.75
GCTCCAGCAGCAGCAGCC | 0.94
GCTCCCATCCTCGTCGCC | ≥ 1
GCTGTGTCTCTGGGCATC | ≥ 1
GCTTCCTGTCCATCACTG | 0.71
GCTTGAAGAAATGTTTTA | ≥ 1
GCTTGAGTGCTGGGAACA | ≥ 1
GGAAACTGAGTCAAGCAA | 0.62
GGAGTGCATAAGAGGCCACA | 0.56
GGATCCTGTTGATCTCCT | ≥ 1
GGCAAGGCTTGAGTGCTG | 0.42
GGCGAAGCTGATGCGGAC | ≥ 1
GGCGGCCTTCTCATCCTC | 0.96
GGCTCAGAAGGACTTCCTGG | 0.65
GGCTGCGGAGCACGTCCT | 0.54
GGCTGCTGAGAATCTGAA | 0.78
GGGAGTTGACGAAGATGG | 0.96
GGGCCCAAAAGCAGCAGC | 0.89
GGGGTGGTGGAGTGCATAAG | 0.9
